From patent publication US20040082551A1, “Novel pyrazoles and their use as p38 kinase inhibitors” (priority 2002, published 2004)
Where “and” joins values, the source holds several entries; their conditions need not be identical. Identical values can stand only once. Counter-ions that a name gives are not always drawn. Like-named read-outs stand apart in the source and are kept apart here.

Biological target: T1, human p38 kinase alpha (Homo sapiens, UniProt Q16539)
T1 construct: The coding region of the human p38α cDNA was obtained by PCR-amplification from RNA isolated from the human monocyte cell line THP.1; made in house; host or cells: E. coli DH10B
Experiment: In vitro p38 kinase inhibition analysis (PHAS-I 32P-ATP or EGFRP 33P-ATP format)
Format: biochemical
Settings: read-out: p38α Kinase Inhibition (IC50 in μM)
Procedure: The ability of compounds to inhibit human p38 kinase alpha was evaluated using one of two in vitro assay methods. In the first method, activated human p38 kinase alpha phosphorylates a biotinylated substrate, PHAS-I (phosphorylated heat and acid stable protein-insulin inducible), in the presence of gamma ^32P-ATP (^32P-ATP). PHAS-I was biotinylated before the assay, and provided a means of capturing the substrate which was phosphorylated during the assay. p38 Kinase was activated by MKK6. Compounds were tested in 10 fold serial dilutions over the range of 100 μM to 0.001 μM using 1% DMSO. Each concentration of inhibitor was tested in triplicate.
All reactions were carried out in 96 well polypropylene plates. Each reaction well contained 25 mM HEPES pH 7.5, 10 mM magnesium acetate, and 50 μM unlabeled ATP. […] Activated human p38 kinase alpha was used at 1 μg per 50 μl reaction volume, representing a final concentration of 0.3 μM. Gamma ^32P-ATP was used to follow the phosphorylation of PHAS-I. ^32P-ATP has a specific activity of 3000 Ci/mmol, and was used at 1.2 μCi per 50 μl reaction volume. The reaction proceeded either for one hr or overnight at 30° C.
Following incubation, 20 μl of reaction mixture was transferred to a high capacity streptavidin coated filter plate (SAM-streptavidin-matrix, Promega) prewetted with phosphate buffered saline. The transferred reaction mix was allowed to contact the streptavidin membrane of the Promega plate for 1-2 min. […] Filter plates were air dried and 20 μl of scintillant was added. The plates were sealed and counted.
A second assay format was alternatively employed. This assay is based on p38 kinase alpha being induced phosphorylation of EGFRP (epidermal growth factor receptor peptide, a 21 mer) in the presence of ^33P-ATP. Compounds were tested in 10 fold serial dilutions over the range of 100 μM to 0.001 μM in 10% DMSO. Each concentration of inhibitor was tested in triplicate. Compounds were evaluated in 50 μl reaction volumes in the presence of 25 mM HEPES pH 7.5, 10 mM magnesium acetate, 4% glycerol, 0.4% bovine serum albumin, 0.4 mM DTT, 50 μM unlabeled ATP, 25 μg EGFRP (200 μM), and 0.05 uCi gamma ^33P-ATP. Reactions were initiated by addition of 0.09 μg of activated, purified human GST-p38 kinase alpha. Activation was carried out using GST-MKK6 (5:1,p38:MKK6) for one hr at 30° C. in the presence of 50 μM ATP. Following incubation for 60 min at room temperature, the reaction was stopped by addition of 150 μl of AG 1×8 resin in 900 mM sodium formate buffer, pH 3.0 (1 volume resin to 2 volumes buffer). The mixture was mixed three times with pipetting. Afterward, the resin was allowed to settle. A total of 50 μl of clarified solution head volume was transferred from the reaction wells to Microlite-2 plates. 150 μl of Microscint 40 was then added to each well of the Microlite plate, and the plate was sealed, mixed, and counted.

[1] = Table 2, additional pyrazole compounds, Examples 56-169
[2] = Table 1, compounds of Examples 1-28, one of two in vitro assay methods
[3] = Table 1, compounds of Examples 1-28, one of two in vitro assay methods, Trifluoroacetate

T1 sequence (Q16539 whole entry): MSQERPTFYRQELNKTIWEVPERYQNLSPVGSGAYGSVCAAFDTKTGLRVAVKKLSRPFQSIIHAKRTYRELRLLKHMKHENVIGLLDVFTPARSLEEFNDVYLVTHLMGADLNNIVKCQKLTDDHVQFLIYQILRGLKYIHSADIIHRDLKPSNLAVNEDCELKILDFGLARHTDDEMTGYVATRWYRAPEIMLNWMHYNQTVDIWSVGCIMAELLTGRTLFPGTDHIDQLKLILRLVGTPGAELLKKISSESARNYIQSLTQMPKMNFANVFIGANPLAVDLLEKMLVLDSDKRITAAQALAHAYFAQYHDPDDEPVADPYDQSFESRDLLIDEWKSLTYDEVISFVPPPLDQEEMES

| SMILES | IC50 [1] | also measured |
| --- | --- | --- |
| O=C(CO)N1CCC(c2[nH]nc(-c3ccc(F)c(C(F)(F)F)c3)c2-c2ccnc(NC3CCCC3)n2)CC1 [Example 169] | 0.0032 µM |  |
| CN(C)CCNc1nccc(-c2c(-c3ccc(F)c(C(F)(F)F)c3)n[nH]c2C2CCN(C(=O)CO)CC2)n1 [Example 118] | 0.814 µM |  |
| C[C@@H](O)C(=O)N1CCC(c2[nH]nc(-c3ccc(Cl)cc3F)c2-c2ccncn2)CC1 [Example 113] | 0.207 µM |  |
| O=C(CO)N1CCC(c2[nH]nc(-c3ccc(Cl)cc3O)c2-c2ccncn2)CC1 [Example 98] | 1.31 µM |  |
| COc1cc(-c2n[nH]c(C3CCN(C(=O)CO)CC3)c2-c2ccncn2)ccc1Cl [Example 72] | 4.6 µM |  |
| Fc1ccc(-c2n[nH]c(C3CCNCC3)c2-c2ccnc(NC3CCCC3)n2)cc1C(F)(F)F [Example 164] | 0.0225 µM |  |
| COc1cc(Cl)ccc1-c1n[nH]c(C2CCN(C(=O)CO)CC2)c1-c1ccncn1 [Example 79] | 19.3 µM |  |
| CC(C)N[C@H]1CC[C@H](c2[nH]nc(-c3ccc(F)c(F)c3)c2-c2ccncn2)CC1 [Example 13, 4-[3-(3,4-difluorophenyl)-4-pyrimidin-4-yl-1H-pyrazol-5-yl]-N-isopropylcyclohexanamine] |  | IC50 [2]: 0.115 µM |
| O=C(CO)N1CCC(c2[nH]nc(-c3ccc(F)c(Cl)c3)c2-c2ccncn2)CC1 [Example 70] | 0.147 µM |  |
| Clc1ccc(-c2n[nH]c([C@H]3CC[C@H](NC4CCCCC4)CC3)c2-c2ccncn2)cc1 [Example 4] |  | IC50 [2]: 0.0379 µM |
| CS(=O)(=O)N1CCC(c2[nH]nc(-c3ccc(Cl)cc3F)c2-c2ccnc(NC3CCCC3)n2)CC1 [Example 159] | 0.0047 µM |  |
| O=C(CO)N1CCC(c2[nH]nc(-c3cc(Cl)cc(Cl)c3)c2-c2ccncn2)CC1 [Example 75] | 3.39 µM |  |
| O=C(CO)N1CCC(c2[nH]nc(-c3cc(F)cc(F)c3)c2-c2ccncn2)CC1 [Example 76] | 6.2 µM |  |
| COCCOCC(=O)N1CCC(c2[nH]nc(-c3ccc(Cl)cc3)c2-c2ccncn2)CC1 [Example 61] | 0.764 µM |  |
| CN(C)CCNc1nccc(-c2c(-c3ccc(Cl)cc3F)n[nH]c2C2CCNCC2)n1 [Example 161] | 0.202 µM |  |
| O=C(CO)N1CCC(c2[nH]nc(-c3ccc(F)cc3F)c2-c2ccncn2)CC1 [Example 67] | 0.248 µM |  |
| CN(CCO)[C@H]1CC[C@H](c2[nH]nc(-c3ccc(Cl)cc3)c2-c2ccncn2)CC1 [Example 12, 2-[{4-[3-(4-chlorophenyl)-4-pyrimidin-4-yl-1H-pyrazol-5-yl]cyclohexyl)(methyl)amino]ethanol Hydrochloride Hydrate] |  | IC50 (Table 1, compounds of Examples 1-28, one of two in vitro assay methods, Hydrochloride Hydrate): 0.0379 µM |
| CN(C)CCNc1nccc(-c2c(-c3ccc(Cl)cc3F)n[nH]c2C2CCN(C(=O)OC(C)(C)C)CC2)n1 [Example 160] | 4.4 µM |  |
| CC(C)C(N)C(=O)OCC(=O)N1CCC(c2[nH]nc(-c3ccc(Cl)cc3)c2-c2ccncn2)CC1 (centres unmarked) [Example 56] | 0.0402 µM |  |
| Clc1ccc(-c2n[nH]c(C3CCNCC3)c2-c2ccnc(NC3CCCC3)n2)cc1 [Example 141] | 0.01 µM |  |
| CN1CCC(c2[nH]nc(-c3ccc(Cl)cc3)c2-c2ccnc(NC3CCN(Cc4ccccc4)CC3)n2)CC1 [Example 152] | 0.075 µM |  |
| O[C@H]1CC[C@H](c2[nH]nc(-c3ccc(Cl)cc3)c2-c2ccncn2)CC1 [Example 6, 4-[3-(4-chlorophenyl)-4-pyrimidin-4-yl-1H-pyrazol-5-yl]-trans-cyclohexanol] |  | IC50 [2]: 0.289 µM |
| CN(C)CCNc1nccc(-c2c(-c3cccc(Cl)c3)n[nH]c2C2CCN(C(=O)CO)CC2)n1 [Example 117] | 0.699 µM |  |
| CC(C)(C)OC(=O)N1CCC(c2[nH]nc(-c3ccc(Cl)cc3)c2-c2ccnc(Oc3ccc(C#N)cc3)n2)CC1 [Example 135] | 1.5 µM |  |

| SMILES | IC50 [1] | also measured |
| --- | --- | --- |
| CN(C)CCOc1nccc(-c2c(-c3cccc(Cl)c3)n[nH]c2C2CCNCC2)n1 [Example 138] | 0.162 µM |  |
| CC(C)CCNc1nccc(-c2c(-c3ccc(Cl)cc3)n[nH]c2C2CCN(C(=O)CO)CC2)n1 [Example 100] | 0.859 µM |  |
| C[C@@H](N[C@H]1CC[C@H](c2[nH]nc(-c3ccc(Cl)cc3)c2-c2ccncn2)CC1)c1ccccc1 [Example 123] | 0.0427 µM |  |
| CN(C)CCNc1nccc(-c2c(-c3ccc(Cl)cc3)n[nH]c2C2CCN(C(=O)OC(C)(C)C)CC2)n1 [Example 143] | 3.64 µM |  |
| CC(C)(C)OC(=O)N1CCC(c2[nH]nc(-c3ccc(Cl)cc3)c2-c2ccnc(O[C@@H]3CCOC3)n2)CC1 [Example 132] | 3.34 µM |  |
| CC(C)N[C@H]1CC[C@H](c2[nH]nc(-c3ccc(F)c(C(F)(F)F)c3)c2-c2ccncn2)CC1 [Example 14, 4-{3-[4-fluoro-3-(trifluoromethyl)phenyl]-4-pyrimidin-4-yl-1H-pyrazol-5-yl}-N-isopropylcyclohexanamine] |  | IC50 [2]: 0.0723 µM |
| C[C@@H](O)C(=O)N1CCC(c2[nH]nc(-c3cccc(Cl)c3F)c2-c2ccncn2)CC1 [Example 114] | 0.411 µM |  |
| N#Cc1cccc(Oc2nccc(-c3c(-c4ccc(Cl)cc4)n[nH]c3C3CCN(C(=O)CO)CC3)n2)c1 [Example 96] | 0.0697 µM |  |
| CN(C)CCOc1nccc(-c2c(-c3ccc(Cl)cc3F)n[nH]c2C2CCNCC2)n1 [Example 156] | 0.637 µM and 0.627 µM |  |
| COc1cc(Cl)ccc1-c1n[nH]c(C2CCN(C(=O)COC(C)=O)CC2)c1-c1ccncn1 [Example 77] | 22.8 µM |  |
| CCc1ccc(-c2n[nH]c(C3CCN(C(=O)CO)CC3)c2-c2ccncn2)cc1 [Example 82] | 5.85 µM |  |
| CN(C)CCNc1nccc(-c2c(-c3ccc(F)c(C(F)(F)F)c3)n[nH]c2C2CCNCC2)n1 [Example 146] | 0.261 µM |  |
| O=C(CO)N1CCC(c2[nH]nc(-c3ccc(Cl)cc3)c2-c2ccnc(O[C@H]3CCOC3)n2)CC1 [Example 92] | 0.14 µM |  |
| C[C@@H](N[C@H]1CC[C@H](c2[nH]nc(-c3ccc(Cl)cc3)c2-c2ccncn2)CC1)c1ccccc1 [Example 1, 4-[3-(4-chlorophenyl)-4-pyrimidin-4-yl-1H-pyrazol-5-yl]-N-[(1R)-1-phenylethyl]-trans-cyclohexanamine] |  | IC50 [2]: 0.0314 µM |
| FC(F)(F)c1cc(-c2n[nH]c(C3CCNCC3)c2-c2ccnc(NC3CCCC3)n2)ccc1NC1CCCC1 [Example 165] | 0.424 µM |  |
| O=C(COP(=O)(O)O)N1CCC(c2[nH]nc(-c3ccc(Cl)cc3)c2-c2ccncn2)CC1 [Example 23, mono-sodium 2-{4-[3-(4-chlorophenyl)-4-pyrimidin-4-yl-1H-pyrazol-5-yl]piperidin-1-yl}-2-oxoethyl Dihydrogen Phosphate Dihydrate] |  | IC50 (Table 1, compounds of Examples 1-28, one of two in vitro assay methods, Phosphate Dihydrate): 0.0681 µM |
| CC(=O)OCC(=O)N1CCC(c2[nH]nc(-c3ccc(Cl)c(Cl)c3)c2-c2ccncn2)CC1 [Example 66] | 0.216 µM |  |
| Clc1ccc(-c2n[nH]c([C@H]3CC[C@H](N4CCCCC4)CC3)c2-c2ccncn2)cc1 [Example 7, 4-[3-(4-chlorophenyl)-5-(4-piperidin-1-yl-cyclohexyl)-1H-pyrazol-4-yl]pyrimidine Trifluoroacetate] |  | IC50 [3]: 0.0238 µM |
| N#Cc1ccc(-c2n[nH]c(C3CCN(C(=O)CO)CC3)c2-c2ccncn2)cc1 [Example 74] | 7.06 µM |  |
| C[C@H](N[C@H]1CC[C@H](c2[nH]nc(-c3ccc(Cl)cc3)c2-c2ccncn2)CC1)c1ccccc1 [Example 121] | 0.00856 µM |  |
| OC[C@H]1CCCN1[C@H]1CC[C@H](c2[nH]nc(-c3ccc(Cl)cc3)c2-c2ccncn2)CC1 [Example 9, ((2R)-1-{4-[3-(4-chlorophenyl)-4-pyrimidin-4-yl-1H-pyrazol-5-yl]cyclohexyl)pyrrolidin-2-yl)methanol Trifluoroacetate] |  | IC50 [3]: 0.0285 µM |
| O=C([C@@H](O)CO)N1CCC(c2[nH]nc(-c3ccc(Cl)cc3)c2-c2ccncn2)CC1 [Example 65] | 0.256 µM |  |
| Fc1cc(Cl)ccc1-c1n[nH]c(C2CCNCC2)c1-c1ccnc(NC2CCCC2)n1 [Example 147] | 0.0159 µM |  |
